Assay: xn = mol fraction of the nth substance listed
Details: 101 kPa, Liquid; for speed of sound: Single path-length method; for mass density: Vibrating tube method

C[N+]1(CC2CO2)CCCC1=O.O=C([O-])c1ccccc1O (stereo not given) [1-methyl-1-(oxiran-2-ylmethyl)-2-oxopyrrolidinium salicylate] + CC(=O)O
Details | mass density, 293.15 K [kg/m3] | mass density, 298.15 K [kg/m3] | mass density, 303.15 K [kg/m3] | mass density, 308.15 K [kg/m3] | mass density, 313.15 K [kg/m3] | speed of sound, 293.15 K [m/s] | speed of sound, 298.15 K [m/s] | speed of sound, 303.15 K [m/s] | speed of sound, 308.15 K [m/s] | speed of sound, 313.15 K [m/s]
x1 = 0.0301 | 1080.9 | 1075.6 | 1070.3 | 1065 | 1059.7 | 1250 | 1232.7 | 1215.5 | 1198.6 | 1181.8
x1 = 0.0701 | 1103.7 | 1098.6 | 1093.5 | 1088.4 | 1083.3 | 1310.7 | 1294 | 1277.3 | 1260.7 | 1244.4
x1 = 0.1001 | 1117.2 | 1112.3 | 1107.3 | 1102.4 | 1097.4 | 1349.7 | 1333.2 | 1316.5 | 1300.1 | 1283.9
x1 = 0.2001 | 1147.6 | 1143 | 1138.3 | 1133.6 | 1128.8 | 1441 | 1424.6 | 1408.1 | 1391.8 | 1375.7
x1 = 0.3003 | 1166.3 | 1161.7 | 1157.2 | 1152.7 | 1148.9 | 1496.7 | 1480.2 | 1463.7 | 1447.5 | 1431
x1 = 0.4013 | 1178.7 | 1174.2 | 1169.7 | 1165.5 | 1161 | 1535 | 1515.8 | 1497.4 | 1480.2 | 1463.1
x1 = 0.5017 | 1187.3 | 1183 | 1178.7 | 1174.5 | 1170.1 | 1561.4 | 1541.8 | 1523.2 | 1504.9 | 1488.8
x1 = 0.6002 | 1193.9 | 1189.6 | 1185.4 | 1181.3 | 1177 | 1582.2 | 1562.5 | 1542.9 | 1528.5 | 1515.4
x1 = 0.7019 | 1199.1 | 1194.9 | 1190.7 | 1186.7 | 1182.5 | 1600 | 1582 | 1565.2 | 1548.8 | 1532.6
x1 = 0.8024 | 1203.6 | 1199.3 | 1195.1 | 1191 | 1186.7 | 1617.3 | 1600 | 1583 | 1566.5 | 1550.4
x1 = 0.901 | 1207 | 1202.7 | 1198.6 | 1194.5 | 1190.2 | 1626.8 | 1609.2 | 1592.2 | 1575.7 | 1559.5
x1 = 1 | 1209.8 | 1205.5 | 1201.3 | 1197.2 | 1193 | 1634.2 | 1614.5 | 1595.7 | 1577.6 | 1559.5

C[N+]1(CC2CO2)CCCC1=O.O=C([O-])c1ccccc1O (stereo not given) [1-methyl-1-(oxiran-2-ylmethyl)-2-oxopyrrolidinium salicylate] + CCC(=O)O
Details | mass density, 293.15 K [kg/m3] | mass density, 298.15 K [kg/m3] | mass density, 303.15 K [kg/m3] | mass density, 308.15 K [kg/m3] | mass density, 313.15 K [kg/m3] | speed of sound, 293.15 K [m/s] | speed of sound, 298.15 K [m/s] | speed of sound, 303.15 K [m/s] | speed of sound, 308.15 K [m/s] | speed of sound, 313.15 K [m/s]
x1 = 0.0303 | 1018.7 | 1013.6 | 1008.2 | 1003.2 | 998 | 1211.9 | 1193.4 | 1175 | 1156.8 | 1138.9
x1 = 0.0701 | 1046.2 | 1041.2 | 1036.2 | 1031.3 | 1026.3 | 1266.7 | 1248.7 | 1230.8 | 1213.2 | 1195.8
x1 = 0.1006 | 1063.4 | 1058.6 | 1053.7 | 1048.9 | 1044 | 1303.5 | 1286 | 1268.5 | 1251.1 | 1233.7
x1 = 0.2 | 1105.7 | 1101.9 | 1096.5 | 1091.8 | 1087.2 | 1400.3 | 1383.3 | 1366.1 | 1349.2 | 1332.5
x1 = 0.3007 | 1133.9 | 1129.4 | 1124.9 | 1120.4 | 1115.9 | 1465.8 | 1449 | 1432 | 1415.3 | 1398.7
x1 = 0.4009 | 1153.6 | 1149.2 | 1144.8 | 1140.3 | 1135.9 | 1505.7 | 1488.9 | 1472 | 1455.4 | 1439
x1 = 0.501 | 1168.6 | 1164.2 | 1159.8 | 1155.4 | 1151 | 1538.8 | 1521.9 | 1505 | 1488.4 | 1472
x1 = 0.6002 | 1180.6 | 1176.3 | 1172 | 1167.6 | 1163.3 | 1565.4 | 1547.8 | 1530.9 | 1514.3 | 1497.9
x1 = 0.7002 | 1190.5 | 1186.2 | 1181.9 | 1177.6 | 1173.3 | 1584.5 | 1566.8 | 1549.5 | 1532.7 | 1516.3
x1 = 0.8005 | 1198.3 | 1194.1 | 1189.8 | 1185.5 | 1181.2 | 1599.7 | 1581.7 | 1564.2 | 1547.3 | 1530.8
x1 = 0.901 | 1204.6 | 1200.4 | 1196.1 | 1191.8 | 1187.5 | 1615.4 | 1596.4 | 1578.6 | 1561.5 | 1544.9
x1 = 1 | 1209.8 | 1205.5 | 1201.3 | 1197.2 | 1193 | 1634.2 | 1614.5 | 1595.7 | 1577.6 | 1559.5
